ChEMBL document CHEMBL5038659, “Discovery of the First Examples of Threonine Tyrosine Kinase PROTAC Degraders” (J Med Chem, 2022)
Activity calls are given as the source filed them. The calls are words filed in the database; no cut-off is given here.

What was measured:
[1] = molecular target: T1, Protein cereblon/Dual specificity protein kinase TTK (Homo sapiens, UniProt P33981+Q96SW2); test: Protac activity at CRBN/TTK in human HCT-116 cells assessed as TTK degradation by measuring maximum degradation after 6 hrs by Western blotting analysis relative to control; type: cell-based
Target sequence in this assay (P33981 whole entry, looked up): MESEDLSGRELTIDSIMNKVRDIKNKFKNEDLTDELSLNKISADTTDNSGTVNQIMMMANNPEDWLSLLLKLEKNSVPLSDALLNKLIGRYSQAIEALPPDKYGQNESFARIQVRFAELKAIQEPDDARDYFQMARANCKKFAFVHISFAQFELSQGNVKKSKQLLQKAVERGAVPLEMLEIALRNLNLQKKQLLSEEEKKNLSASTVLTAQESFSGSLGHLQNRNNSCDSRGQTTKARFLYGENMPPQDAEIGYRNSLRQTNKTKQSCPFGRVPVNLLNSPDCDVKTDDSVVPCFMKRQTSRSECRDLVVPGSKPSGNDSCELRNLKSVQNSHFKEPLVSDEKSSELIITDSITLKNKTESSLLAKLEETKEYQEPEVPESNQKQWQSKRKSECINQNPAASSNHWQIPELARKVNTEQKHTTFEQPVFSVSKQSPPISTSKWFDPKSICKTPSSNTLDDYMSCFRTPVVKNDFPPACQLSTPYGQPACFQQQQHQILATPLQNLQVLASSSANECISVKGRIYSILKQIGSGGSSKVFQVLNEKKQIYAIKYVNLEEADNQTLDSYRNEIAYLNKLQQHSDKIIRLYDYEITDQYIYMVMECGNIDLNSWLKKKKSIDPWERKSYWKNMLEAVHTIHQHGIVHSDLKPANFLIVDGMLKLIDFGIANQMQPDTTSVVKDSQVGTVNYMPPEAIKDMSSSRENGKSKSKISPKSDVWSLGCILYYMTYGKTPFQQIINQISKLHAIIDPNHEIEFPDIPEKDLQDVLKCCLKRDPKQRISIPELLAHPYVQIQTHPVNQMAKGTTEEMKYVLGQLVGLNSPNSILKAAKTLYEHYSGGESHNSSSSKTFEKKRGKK
Target sequence in this assay (Q96SW2 whole entry, looked up): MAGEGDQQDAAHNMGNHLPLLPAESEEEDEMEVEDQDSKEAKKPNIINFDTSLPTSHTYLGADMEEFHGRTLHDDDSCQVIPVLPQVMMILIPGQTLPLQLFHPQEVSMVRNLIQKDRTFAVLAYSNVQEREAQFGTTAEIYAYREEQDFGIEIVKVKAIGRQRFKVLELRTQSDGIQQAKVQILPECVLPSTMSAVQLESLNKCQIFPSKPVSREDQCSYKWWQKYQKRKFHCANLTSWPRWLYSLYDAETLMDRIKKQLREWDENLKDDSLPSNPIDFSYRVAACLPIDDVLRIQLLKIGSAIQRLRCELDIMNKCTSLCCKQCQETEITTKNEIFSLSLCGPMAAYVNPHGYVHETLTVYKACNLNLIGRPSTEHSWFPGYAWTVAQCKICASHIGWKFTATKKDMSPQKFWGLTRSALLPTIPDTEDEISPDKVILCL

[2] = molecular target: T1, Protein cereblon/Dual specificity protein kinase TTK; test: Protac activity at CRBN/TTK in human HCT-116 cells assessed as degradation of TTK measured after 6 hrs by Western blotting analysis; type: cell-based
Target sequence in this assay (P33981 whole entry): as the sequence (P33981 whole entry, looked up) above
Target sequence in this assay (Q96SW2 whole entry): as the sequence (Q96SW2 whole entry, looked up) above

[3] = molecular target: T1, Protein cereblon/Dual specificity protein kinase TTK; test: Protac activity at CRBN/TTK in human COLO 205 cells assessed as degradation of TTK measured after 6 hrs by Western blotting analysis; type: cell-based
Target sequence in this assay (P33981 whole entry): as the sequence (P33981 whole entry, looked up) above
Target sequence in this assay (Q96SW2 whole entry): as the sequence (Q96SW2 whole entry, looked up) above

[4] = molecular target: T1, Protein cereblon/Dual specificity protein kinase TTK; test: Protac activity at CRBN/TTK in human COLO 205 cells assessed as TTK degradation by measuring maximum degradation after 6 hrs by Western blotting analysis relative to control; type: cell-based
Target sequence in this assay (P33981 whole entry, looked up): as the sequence (P33981 whole entry, looked up) above
Target sequence in this assay (Q96SW2 whole entry, looked up): as the sequence (Q96SW2 whole entry, looked up) above

COLO 205 [5] = test: Antiproliferative against human COLO 205 cells assessed as cell viability after 4 days by CCK-8 assay; type: functional, cell-based; settings: COLO 205, 96 h
[6] = molecular target: von Hippel-Lindau disease tumor suppressor/Dual specificity protein kinase TTK (Homo sapiens, UniProt P33981+P40337); test: Protac activity at VHL/TTK in human HCT-116 cells assessed as degradation of TTK measured after 6 hrs by Western blotting analysis; type: cell-based
Sequence of von Hippel-Lindau disease tumor suppressor/Dual specificity protein kinase TTK (P33981 whole entry): as the sequence (P33981 whole entry, looked up) above
Sequence of von Hippel-Lindau disease tumor suppressor/Dual specificity protein kinase TTK (P40337 whole entry): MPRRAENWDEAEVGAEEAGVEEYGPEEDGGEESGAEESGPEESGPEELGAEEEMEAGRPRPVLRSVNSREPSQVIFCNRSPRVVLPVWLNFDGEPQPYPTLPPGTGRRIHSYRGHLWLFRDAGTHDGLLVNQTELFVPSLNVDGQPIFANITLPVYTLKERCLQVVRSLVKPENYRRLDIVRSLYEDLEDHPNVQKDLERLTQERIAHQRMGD

COLO 205 [7] = test: Antitumor activity against human COLO205 cells xenografted in CB17-SCID mouse assessed as tumor growth inhibition at 10 mg/kg, ip daily for 16 days relative to control; type: functional, organism-based; settings: time 16.0 day
[8] = molecular target: T1, Protein cereblon/Dual specificity protein kinase TTK; test: Protac activity at CRBN/TTK in human LoVo cells assessed as degradation of TTK measured at […] for 6 hrs by Western blotting analysis; type: cell-based; settings: dose lower 5.0 µM
Target sequence in this assay (P33981 whole entry, looked up): as the sequence (P33981 whole entry, looked up) above
Target sequence in this assay (Q96SW2 whole entry, looked up): as the sequence (Q96SW2 whole entry, looked up) above

LoVo = test: Antiproliferative against human LoVo cells assessed as cell viability at 0.0001 to 100 uM at day 4 by CCK-8 assay; type: functional, cell-based; settings: dose 0.0001-100 µM
[9] = Half life in Sprague-Dawley rat at 10 mg/kg, ip by LC-MS/MS analysis; type: ADME, organism-based; settings: in vivo
COLO 205 [10] = test: Antitumor activity against human COLO205 cells xenografted in CB17-SCID mouse assessed as tumor growth inhibition at 20 mg/kg, ip daily for 16 days relative to control; type: functional; settings: COLO 205, ip, 384 h, time 16 day, read-out: TGI
[11] = molecular target: T1, Protein cereblon/Dual specificity protein kinase TTK; test: Protac activity at CRBN/TTK in human HCT-8 cells assessed as degradation of TTK measured at […] for 6 hrs by Western blotting analysis; type: cell-based; settings: dose lower 5.0 µM
Target sequence in this assay (P33981 whole entry, looked up): as the sequence (P33981 whole entry, looked up) above
Target sequence in this assay (Q96SW2 whole entry, looked up): as the sequence (Q96SW2 whole entry, looked up) above

HCT-29 = test: Antiproliferative against human […] cells assessed as cell viability at 0.0001 to 100 uM at day 4 by CCK-8 assay; type: functional, cell-based; settings: dose 0.0001-100 µM
[12] = molecular target: T1, Protein cereblon/Dual specificity protein kinase TTK; test: Protac activity at CRBN/TTK in human COLO 205 cells assessed as induction of TTK degradation in presence of N-[4-[2-[2-methoxy-4-(4-methylpiperazin-1-yl)anilino]-5-methyl-7-oxo-pyrido[2,3-d]pyrimidin-8-yl]cyclohexyl]propanamide after 6 hrs by Western blotting relative to control; type: cell-based
Target sequence in this assay (P33981 whole entry, looked up): as the sequence (P33981 whole entry, looked up) above
Target sequence in this assay (Q96SW2 whole entry, looked up): as the sequence (Q96SW2 whole entry, looked up) above

[13] = Toxicity in CB17-SCID mouse xenografted with human […] cells assessed as effect on body weight at 10 to 20 mg/kg, ip daily for 16 days; type: organism-based, COLO 205; settings: in vivo, 384 h, dose 10-20 mg/kg, time 16 day
[14] = molecular target: T1, Protein cereblon/Dual specificity protein kinase TTK; test: Protac activity at CRBN/TTK in human COLO 205 cells assessed as induction of TTK degradation in presence of MG132 incubated for 1 hr by Western blotting analysis relative to control; type: cell-based
Target sequence in this assay (P33981 whole entry, looked up): as the sequence (P33981 whole entry, looked up) above
Target sequence in this assay (Q96SW2 whole entry, looked up): as the sequence (Q96SW2 whole entry, looked up) above

[15] = AUC in Sprague-Dawley rat at 10 mg/kg, ip by LC-MS/MS analysis; type: ADME, organism-based; parameters: dose 10 mg/kg; settings: in vivo
[16] = molecular target: T1, Protein cereblon/Dual specificity protein kinase TTK; test: Protac activity at CRBN/TTK in human COLO 205 cells assessed as induction of TTK degradation at 5 nM after 6 to 8 hrs post washout by Western blot analysis; type: cell-based; settings: time 6-8 hrs
[17] = molecular target: T1, Protein cereblon/Dual specificity protein kinase TTK; test: Protac activity at CRBN/TTK in human […] cells assessed as degradation of TTK measured at […] for 6 hrs by Western blotting analysis; type: cell-based; settings: dose lower 5.0 µM
[18] = molecular target: T1, Protein cereblon/Dual specificity protein kinase TTK; test: Protac activity at CRBN/TTK in human COLO 205 cells assessed as induction of TTK degradation at 5 nM after 16 hrs post washout by Western blot analysis; type: cell-based
[19] = molecular target: T1, Protein cereblon/Dual specificity protein kinase TTK; test: In vivo protac activity at CRBN/TTK in human COLO-205 cells xenografted in CB17-SCID mouse at 10 to 20 mg/kg, ip daily for 16 days by western blotting analysis; type: organism-based; settings: dose 10-20 mg/kg, time 16.0 day
HCT-8 = test: Antiproliferative against human HCT-8 cells assessed as cell viability at 0.0001 to 100 uM at day 4 by CCK-8 assay; type: functional, cell-based; settings: dose 0.0001-100 µM

Row | Compound | Emax [1] [%] | DC50 [2] [nM] | DC50 [3] [nM] | Emax [4] [%] | further results
1 | CCC(=O)N[C@H]1CC[C@@H](n2c(=O)cc(C)c3cnc(Nc4ccc(N5CCN(C(=O)CCCCCC#Cc6cccc7c6C(=O)N(C6CCC(=O)NC6=O)C7)CC5)cc4OC)nc32)CC1 (some centres undefined) | 41 | > 1000 | 31.3 | 72 | 
2 | CCC(=O)N[C@H]1CC[C@@H](n2c(=O)cc(C)c3cnc(Nc4ccc(N5CCN(C(=O)CCCCCC#Cc6ccc7c(c6)C(=O)N(C6CCC(=O)N(C)C6=O)C7)CC5)cc4OC)nc32)CC1 (some centres undefined) |  |  |  |  | IC50 (COLO 205 [5]): 1500 nM
3 | CCC(=O)N[C@H]1CC[C@@H](n2c(=O)cc(C)c3cnc(Nc4ccc(N5CCN(CCCCCCCCOCCC(=O)N[C@H](C(=O)N6C[C@H](O)C[C@H]6C(=O)NCc6ccc(-c7scnc7C)cc6)C(C)(C)C)CC5)cc4OC)nc32)CC1 |  |  |  |  | DC50 [6]: > 1000 nM
4 | CCC(=O)N[C@H]1CC[C@@H](n2c(=O)cc(C)c3cnc(Nc4ccc(N5CCN(C(=O)CCCCCCCCCC#Cc6ccc7c(c6)C(=O)N(C6CCC(=O)NC6=O)C7)CC5)cc4OC)nc32)CC1 (some centres undefined) | 66 | 74.5 | 19.1 | 87 | 
5 | CCC(=O)N[C@H]1CC[C@@H](n2c(=O)cc(C)c3cnc(Nc4ccc(N5CCN(C(=O)CCCCCCCCCC#Cc6ccc7c(c6)CN(C6CCC(=O)NC6=O)C7=O)CC5)cc4OC)nc32)CC1 (some centres undefined) | 83 | 30.2 | 5.6 | 85 | 
6 | CCC(=O)N[C@H]1CC[C@@H](n2c(=O)cc(C)c3cnc(Nc4ccc(N5CCN(CCCCOCCC(=O)N[C@H](C(=O)N6C[C@H](O)C[C@H]6C(=O)NCc6ccc(-c7scnc7C)cc6)C(C)(C)C)CC5)cc4OC)nc32)CC1 |  |  |  |  | DC50 [6]: > 1000 nM
7 | CCC(=O)N[C@H]1CC[C@@H](n2c(=O)cc(C)c3cnc(Nc4ccc(N5CCN(C(=O)CCCCCCCC#Cc6cccc7c6C(=O)N(C6CCC(=O)NC6=O)C7)CC5)cc4OC)nc32)CC1 (some centres undefined) | 37 | 496 | 46 | 73 | 
8 | CCC(=O)N[C@H]1CC[C@@H](n2c(=O)cc(C)c3cnc(Nc4ccc(N5CCN(C(=O)CCCCCCCCCC#Cc6cccc7c6CN(C6CCC(=O)NC6=O)C7=O)CC5)cc4OC)nc32)CC1 (some centres undefined) | 66 | 49.6 | 2.2 | 87 | 
9 | CCC(=O)N[C@H]1CC[C@@H](n2c(=O)cc(C)c3cnc(Nc4ccc(N5CCN(CCOCCC(=O)N[C@H](C(=O)N6C[C@H](O)C[C@H]6C(=O)NCc6ccc(-c7scnc7C)cc6)C(C)(C)C)CC5)cc4OC)nc32)CC1 |  |  |  |  | DC50 [6]: > 1000 nM
10 | CCC(=O)N[C@H]1CC[C@@H](n2c(=O)cc(C)c3cnc(Nc4ccc(N5CCN(CCCCCCOCCC(=O)N[C@H](C(=O)N6C[C@H](O)C[C@H]6C(=O)NCc6ccc(-c7scnc7C)cc6)C(C)(C)C)CC5)cc4OC)nc32)CC1 |  |  |  |  | DC50 [6]: > 1000 nM
11 | CCC(=O)N[C@H]1CC[C@@H](n2c(=O)cc(C)c3cnc(Nc4ccc(N5CCN(C(=O)CCCC#Cc6cccc7c6C(=O)N(C6CCC(=O)NC6=O)C7)CC5)cc4OC)nc32)CC1 (some centres undefined) | 28 | > 1000 | 30.3 | 64 | 
12 | CCC(=O)N[C@H]1CC[C@@H](n2c(=O)cc(C)c3cnc(Nc4ccc(N5CCN(C(=O)CCCC#Cc6ccc7c(c6)CN(C6CCC(=O)N(C)C6=O)C7=O)CC5)cc4OC)nc32)CC1 (some centres undefined) |  |  |  |  | IC50 (COLO 205 [5]): 1500 nM
13 | CCC(=O)N[C@H]1CC[C@@H](n2c(=O)cc(C)c3cnc(Nc4ccc(N5CCN(C(=O)CCCCCCCC#Cc6ccc7c(c6)C(=O)N(C6CCC(=O)NC6=O)C7)CC5)cc4OC)nc32)CC1 (some centres undefined) | 43 | 161 | 7 | 84 | 

Now from value to compound, other results behind:

Row | Emax [1] [%] | DC50 [2] [nM] | DC50 [3] [nM] | Emax [4] [%] | Compound | further results
14 | 57 | 25.4 | 3.3 | 77 | CCC(=O)N[C@H]1CC[C@@H](n2c(=O)cc(C)c3cnc(Nc4ccc(N5CCN(C(=O)CCCC#Cc6ccc7c(c6)C(=O)N(C6CCC(=O)NC6=O)C7)CC5)cc4OC)nc32)CC1 (some centres undefined) | 
15 | 50 | 663 | 3 | 85 | CCC(=O)N[C@H]1CC[C@@H](n2c(=O)cc(C)c3cnc(Nc4ccc(N5CCN(C(=O)CCCCCCCC#Cc6ccc7c(c6)CN(C6CCC(=O)NC6=O)C7=O)CC5)cc4OC)nc32)CC1 (some centres undefined) | 
16 | 80 | 5.8 | 1.7 | 88 | CCC(=O)N[C@H]1CC[C@@H](n2c(=O)cc(C)c3cnc(Nc4ccc(N5CCN(C(=O)CCCC#Cc6ccc7c(c6)CN(C6CCC(=O)NC6=O)C7=O)CC5)cc4OC)nc32)CC1 (some centres undefined) | Activity (COLO 205 [7]): inactive; Activity [8]: Dose-Dependent Effect; Activity (LoVo): Dose-Dependent Effect; half-life [9]: 4.3 h; inhibition in vivo at 20 mg/kg (COLO 205 [10]): 46%; Activity [11]: Dose-Dependent Effect; Activity (HCT-29): Dose-Dependent Effect; Activity [12]: inactive; Activity [13]: Non-Toxic; Activity [14]: inactive; AUC [15]: 2240 ng·h/mL; IC50 (COLO 205 [5]): 100 nM; Activity [16]: Active; Activity [17]: Dose-Dependent Effect; Activity [18]: inactive; Activity [19]: Active; Activity (HCT-8): Dose-Dependent Effect
17 | 13 | > 1000 | 21.7 | 88 | CCC(=O)N[C@H]1CC[C@@H](n2c(=O)cc(C)c3cnc(Nc4ccc(N5CCN(C(=O)CCCCCCCCCC#Cc6cccc7c6C(=O)N(C6CCC(=O)NC6=O)C7)CC5)cc4OC)nc32)CC1 (some centres undefined) | 
18 | 61 | 35 | 1.5 | 86 | CCC(=O)N[C@H]1CC[C@@H](n2c(=O)cc(C)c3cnc(Nc4ccc(N5CCN(C(=O)CCCCCC#Cc6ccc7c(c6)CN(C6CCC(=O)NC6=O)C7=O)CC5)cc4OC)nc32)CC1 (some centres undefined) | 
19 | 50 | 20.3 | 5 | 76 | CCC(=O)N[C@H]1CC[C@@H](n2c(=O)cc(C)c3cnc(Nc4ccc(N5CCN(C(=O)CCCCCC#Cc6cccc7c6CN(C6CCC(=O)NC6=O)C7=O)CC5)cc4OC)nc32)CC1 (some centres undefined) | 
20 | 77 | 12.4 | 3.1 | 82 | CCC(=O)N[C@H]1CC[C@@H](n2c(=O)cc(C)c3cnc(Nc4ccc(N5CCN(C(=O)CCCCCC#Cc6ccc7c(c6)C(=O)N(C6CCC(=O)NC6=O)C7)CC5)cc4OC)nc32)CC1 (some centres undefined) | Activity (COLO 205 [7]): inactive; Activity [8]: Dose-Dependent Effect; Activity (LoVo): Dose-Dependent Effect; half-life [9]: 3.2 h; inhibition in vivo at 20 mg/kg (COLO 205 [10]): 36.7%; Activity [11]: Dose-Dependent Effect; Activity (HCT-29): Dose-Dependent Effect; Activity [12]: inactive; Activity [13]: Non-Toxic; Activity [14]: inactive; AUC [15]: 2330 ng·h/mL; IC50 (COLO 205 [5]): 200 nM; Activity [16]: Active; Activity [17]: Dose-Dependent Effect; Activity [18]: inactive; Activity [19]: Active; Activity (HCT-8): Dose-Dependent Effect
21 | 43 | > 1000 | 599 | 28 | CCC(=O)N[C@H]1CC[C@@H](n2c(=O)cc(C)c3cnc(Nc4ccc(N5CCN(C(=O)CCCC#Cc6cccc7c6CN(C6CCC(=O)NC6=O)C7=O)CC5)cc4OC)nc32)CC1 (some centres undefined) | 
22 | 53 | 58.1 | 7 | 84 | CCC(=O)N[C@H]1CC[C@@H](n2c(=O)cc(C)c3cnc(Nc4ccc(N5CCN(C(=O)CCCCCCCC#Cc6cccc7c6CN(C6CCC(=O)NC6=O)C7=O)CC5)cc4OC)nc32)CC1 (some centres undefined) | 
